This assay has as its target T1, hCRTH2 (Homo sapiens, UniProt Q9Y5Y4).
T1 construct: expressed in transfected cells; host or cells: HEK (human embryonic kidney) cells expressing hCRTH2; membrane preparation
T1 sequence (Q9Y5Y4 1-395): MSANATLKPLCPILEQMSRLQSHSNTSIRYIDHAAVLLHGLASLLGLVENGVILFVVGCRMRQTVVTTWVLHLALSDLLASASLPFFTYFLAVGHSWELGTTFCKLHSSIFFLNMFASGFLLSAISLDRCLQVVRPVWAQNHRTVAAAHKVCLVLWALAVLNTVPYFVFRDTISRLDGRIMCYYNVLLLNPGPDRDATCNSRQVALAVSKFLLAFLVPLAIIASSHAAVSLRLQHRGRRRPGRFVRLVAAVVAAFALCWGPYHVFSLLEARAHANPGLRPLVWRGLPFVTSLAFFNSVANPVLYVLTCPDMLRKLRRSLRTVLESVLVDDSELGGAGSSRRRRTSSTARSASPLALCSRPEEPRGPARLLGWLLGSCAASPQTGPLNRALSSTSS
In words: Radioligand binding assay ([3H]PGD2 competition, HEK-hCRTH2 membranes). The procedure, abridged: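 Competition binding with 3.0 nM [3H]PGD2 and 8-20 μg HEK-hCRTH2 membrane protein in 50 mM Tris-HCl pH 7.4, 1 mM EDTA, 2 mM MnCl2, 1% Me2SO, 60 min at room temperature. Nonspecific binding defined with 10 μM PGD2; bound radioactivity counted after filtration.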

Setting [1] is: [3H]PGD2 binding, rated A-E (Table A).
The mark [2] stands for this setting: [3H]PGD2 binding, values in text.

A word on the Ki: it is the equilibrium dissociation constant of an inhibitor or competing ligand from its target. Low values mean a stronger hold on the target, high ones a looser hold on the target.

Regarding `C[C@H](NC(=O)c1ccc2nc(-c3ccccc3)c(CCCCC(=O)O)nc2c1)c1ccccc1` [15B, 5-(3-phenyl-7-{[(1S)-1-phenylethyl]carbamoyl}quinoxalin-2-yl) pentanoic acid], the Ki under setting [1] lay in the range of 2.1 to 20 nM. Take `O=C(O)CCCCc1nc2cc(C(=O)NCC3(c4ccc(OC(F)(F)F)cc4)CC3)ccc2nc1-c1ccc(Cl)cc1` [compound 317, 5-(3-(4-chlorophenyl)-7-(((1-(4-(trifluoromethoxy)phenyl)cyclopropyl)methyl)carbamoyl)quinoxalin-2-yl)pentanoic acid]: the inhibition constant (Ki) ([3H]PGD2 competition, Table B) is 2.1 to 20 nM.

With `C[C@H](NC(=O)c1ccc2nc(-c3ccc(Cl)cc3)c(CCCCC(=O)O)nc2c1)c1ccccc1` [16AM, 3-(4-chlorophenyl)-7-[[(1-(S)-phenylethyl)amino]carbonyl]-2-quinoxalinepentanoic acid], the Ki under setting [1] fell in the range of 0.1 to 2 nM. The same measure, in the same setting: the figure for `C[C@H](NC(=O)c1ccc2nc(-c3ccccc3)c(CCCCC(=O)O)nc2c1)c1ccc(Cl)cc1` [15BM, 5-(7-{[(1S)-1-(4-chlorophenyl)ethyl]carbamoyl}-3-phenylquinoxalin-2-yl)pentanoic acid] is 2.1 to 20 nM; for `O=C(O)CCCCc1nc2cc(NC(=O)c3ccc(Cl)cc3)ccc2nc1-c1ccccc1` [11E, 5-(7-{[(4-chlorophenyl)-carbonyl]amino}-3-phenyl-quinoxalin-2-yl)pentanoic acid] it is 201 to 700 nM. The same measure, in the same setting: then `CC(CCc1nc2cc(C(=O)N3CCC(c4ccccc4)CC3)ccc2nc1-c1ccc(C(F)(F)F)cc1)CC(=O)O` (centres unmarked) [17R], with 0.1 to 2 nM. In the case of `C[C@H](NC(=O)c1ccc2nc(-c3ccc(Cl)cc3)c(CCCCC(=O)O)nc2c1)c1ccc2ccccc2c1` [compound 496, (S)-5-(3-(4-chlorophenyl)-7-((1-(naphthalen-2-yl)ethyl)carbamoyl)quinoxalin-2-yl)pentanoic acid], the Ki ([3H]PGD2 competition, Table B) was in the range of 2.1 to 20 nM. `C[C@H](NC(=O)c1ccc2nc(-c3ccc(Cl)cc3)c(CCCCC(=O)O)nc2c1)c1ccc(Cl)cc1` [16AE, 3-(4-chlorophenyl)-7-[[[1(S)-(4-chlorophenyl)ethyl]amino]carbonyl]-2-quinoxalinepentanoic acid] displayed a Ki under setting [1] of 0.1 to 2 nM. Consider `O=C(O)Cc1cccc(CCc2nc3cc(C(=O)NCc4ccc(F)cc4)ccc3nc2-c2ccc(F)cc2)c1` [compound 193, 3-[2-[3-(4-fluorophenyl)-7-[[[(4-fluorophenyl)methyl]amino]carbonyl]-2-quinoxalinyl]ethyl] benzeneacetic acid], for which the Ki was 2.1 to 20 nM under setting [1] and 14.6 nM under setting [2].

With `CC(CCCc1nc2cc(C(=O)N[C@H](C)c3ccc(Cl)cc3)ccc2nc1-c1ccc(Cl)cc1)C(=O)O` (stereo partly drawn) [compound 391, 5-(3-(4-chlorophenyl)-7-(((R)-1-(4-chlorophenyl)ethyl)carbamoyl)quinoxalin-2-yl)-2-methylpentanoic acid], the Ki ([3H]PGD2 competition, Table B) was 2.1 to 20 nM.

`O=C(O)CCCCc1nc2cc(C(=O)N3CCC(c4ccccc4)C3)ccc2nc1-c1ccccc1` (centres unmarked) [15AK, 5-{3-phenyl-7-[(3-phenylpyrrolidin-1-yl)carbonyl]quinoxalin-2-yl}pentanoic acid]: the Ki under setting [1] lay in the range of 2.1 to 20 nM. In turn, `O=C(O)CCCCc1nc2cc(C(=O)NC3CCCc4cc(C(F)(F)F)cnc43)ccc2nc1-c1ccccc1` (centres unmarked) [compound 502, 5-(3-phenyl-7-((3-(trifluoromethyl)-5,6,7,8-tetrahydroquinolin-8-yl)carbamoyl)quinoxalin-2-yl)pentanoic acid] registered a Ki ([3H]PGD2 competition, Table B) of 20.1 to 200 nM. `CC(CCc1nc2cc(C(=O)NCc3cccc(Cl)c3)ccc2nc1-c1ccc(C(F)(F)F)cc1)CC(=O)O` (stereo not drawn) [17Q, 7-[[[(3-chlorophenyl)methyl]amino]carbonyl]-beta-methyl-3-[4-(trifluoromethyl)phenyl]-2-quinoxalinepentanoic acid] yielded a Ki under setting [1] of 2.1 to 20 nM. Molecule `O=C(O)CCCCc1nc2cc(C(=O)N[C@@H]3c4ccccc4C[C@H]3O)ccc2nc1-c1ccc(F)cc1` [compound 510, 5-(3-(4-fluorophenyl)-7-(((1R,2R)-2-hydroxy-2,3-dihydro-1H-inden-1-yl)carbamoyl)quinoxalin-2-yl)pentanoic acid] gave a Ki ([3H]PGD2 competition, Table B) of 20.1 to 200 nM. Same read-out and setting: the figure for `O=C(O)CCCCc1nc2cc(C(=O)N3C[C@@H]4C[C@H]3CN4Cc3ccccc3)ccc2nc1-c1ccc(Cl)cc1` [compound 686, 5-(7-((1S,4S)-5-benzyl-2,5-diazabicyclo[2.2.1]heptane-2-carbonyl)-3-(4-chlorophenyl)quinoxalin-2-yl)pentanoic acid] is 20.1 to 200 nM; for `O=C(O)CCCCc1nc2cc(C(=O)N[C@@H]3COc4ccccc43)ccc2nc1-c1ccc(Cl)cc1` [compound 563, (S)-5-(3-(4-chlorophenyl)-7-((2,3-dihydrobenzofuran-3-yl)carbamoyl)quinoxalin-2-yl)pentanoic acid] it is 0.1 to 2 nM. `O=C(O)CCCCc1nc2cc(C(=O)N3CCC[C@H](c4ccccc4)C3)ccc2nc1-c1ccccc1` [compound 143, 3-phenyl-7-[(3(R)-phenyl-1-piperidinyl)carbonyl]-2-quinooxalinepentanoic acid] showed a Ki under setting [1] of 2.1 to 20 nM. As for `C[C@@H](CCc1nc2cc(C(=O)N[C@H](C)c3ccc(F)cc3)ccc2nc1-c1ccc(Cl)cc1)CC(=O)O` [compound 442], for the setting “[3H]PGD2 competition, Table B”, the Ki lay within 0.1 to 2 nM. `COC(=O)c1cnc2nc(-c3ccccc3)c(CCCCC(=O)O)nc2c1` [compound 13, 5-[7-(Methoxycarbonyl)-3-phenylpyrido[2,3-b]pyrazin-2-yl]pentanoic Acid] had a Ki under setting [1] of 20.1 to 200 nM. For `O=C(O)CCCCc1nc2cc(C(=O)N3CCC(c4ccccc4)CC3)ccc2nc1-c1cncnc1` [26Q, 7-[(4-phenyl-1-piperidinyl)carbonyl]-3-(5-pyrimidinyl)-2-quinoxalinepentanoic acid], the inhibition constant Ki reads like this: under setting [1], 20.1 to 200 nM; under setting [2], 96.7 nM. `O=C(O)CCCCc1nc2cc(C(=O)N3CCCC3)ccc2nc1-c1ccccc1` [15BE, 5-[3-phenyl-7-(pyrrolidin-1-ylcarbonyl)quinoxalin-2-yl]pentanoic aicd] had a Ki under setting [1] of 2.1 to 20 nM.

With `CC(CCc1nc2cc(C(=O)NC3Cc4ccccc4C3)ccc2nc1-c1ccc(C(F)(F)F)cc1)CC(=O)O` (stereo not drawn) [17T, 7-[[(2,3-dihydro-1H-inden-2-yl)amino]carbonyl]-beta-methyl-3-[4-(trifluoromethyl)phenyl]-2-quinoxalinepentanoic acid], under setting [1], the Ki lay in the range of 0.1 to 2 nM. As to `C[C@H](CCCc1nc2cc(C(=O)N[C@@H](C)c3ccc(F)cc3)ccc2nc1-c1ccc(F)cc1)C(=O)O` [compound 481, (R)-5-(3-(4-fluorophenyl)-7-(((S)-1-(4-fluorophenyl)ethyl)carbamoyl)quinoxalin-2-yl)-2-methylpentanoic acid], the Ki ([3H]PGD2 competition, Table B) fell in the range of 20.1 to 200 nM. `C[C@H]1CN(c2ccccc2)CCN1C(=O)c1ccc2nc(-c3ccc(Cl)cc3)c(CCCCC(=O)O)nc2c1` [compound 514, (S)-5-(3-(4-chlorophenyl)-7-(2-methyl-4-phenyl-piperazine-1-carbonyl)quinoxalin-2-yl)pentanoic acid] came in with a Ki ([3H]PGD2 competition, Table B) of 2.1 to 20 nM.

`O=C(O)CCCCc1nc2cc(C(=O)NCc3ccc(Cl)cc3)ccc2nc1-c1ccc(F)cc1` [compound 100] yielded a Ki under setting [1] of 0.1 to 2 nM. Take `O=C(O)CCCCc1nc2cc(C(=O)NCc3cccnc3)ccc2nc1-c1ccc(C(F)(F)F)cc1` [3AD]: under setting [1], the Ki lay within 2.1 to 20 nM. `CN(C)C(=O)c1ccc2nc(-c3ccc(F)cc3)c(CCCCC(=O)O)nc2c1` [5Q, 7-[(dimethylamino)carbonyl]-3-(4-fluorophenyl)-2-quinoxalinepentanoic acid] gave a Ki under setting [1] of 20.1 to 200 nM. For `O=C(O)CCCCc1nc2cc(C(=O)N[C@@H]3CCc4cc(Cl)ccc43)ccc2nc1-c1ccc(Cl)cc1` [compound 383, (R)-5-(7-((5-chloro-2,3-dihydro-1H-inden-1-yl)carbamoyl)-3-(4-chlorophenyl)quinoxalin-2-yl)pentanoic acid], the Ki ([3H]PGD2 competition, Table B) fell in the range of 0.1 to 2 nM.

In turn, `C[C@@H](NC(=O)c1ccc2nc(-c3ccccc3)c(CCCCC(=O)O)nc2c1)c1ccc(F)cc1` [15D, 5-(7-{[(1R)-1-(4-fluorophenyl)ethyl]carbamoyl}-3-phenyl-quinoxalin-2-yl)pentanoic acid] came in with a Ki under setting [1] of 0.1 to 2 nM. `O=C(O)CCCCc1nc2cc(C(=O)NC3CC(=O)Nc4ccccc43)ccc2nc1-c1ccccc1` (centres unmarked) [compound 576, 5-(7-((2-oxo-1,2,3,4-tetrahydroquinolin-4-yl)carbamoyl)-3-phenylquinoxalin-2-yl)pentanoic acid] came in with a Ki ([3H]PGD2 competition, Table B) of 2.1 to 20 nM.

For the setting “[3H]PGD2 competition, Table B”, `Cc1ccc(N2CCN(C(=O)c3ccc4nc(-c5ccc(Cl)cc5)c(CCCCC(=O)O)nc4c3)CC2)c(C)c1` [compound 636, 5-(3-(4-chlorophenyl)-7-(4-(2,4-dimethylphenyl)piperazine-1-carbonyl)quinoxa1in-2-yl)pentanoic acid] had a Ki of 0.1 to 2 nM.

Under “[3H]PGD2 competition, Table B”, `O=C(O)Cc1cc(F)cc(CCc2nc3cc(C(=O)N4CC(c5ccc(F)c(F)c5)C4)ccc3nc2-c2ccc(Cl)cc2)c1` [compound 452, 2-(3-(2-(3-(4-chlorophenyl)-7-(3-(3,4-difluorophenyl)azetidine-l-carbonyl)quinoxalin-2-yl)ethyl)-5-fluorophenyl) aceticacid] displayed a Ki of 2.1 to 20 nM. Regarding `O=C(O)CCCCc1nc2cc(C(=O)N3CCCCC3c3nccs3)ccc2nc1-c1ccc(Cl)cc1` (centres unmarked) [compound 654, 5-(3-(4-chlorophenyl)-7-(2-(thiazol-2-yl)piperidine-1-carbonyl)quinoxalin-2-yl)pentanoic acid], the Ki ([3H]PGD2 competition, Table B) lay within 20.1 to 200 nM.

For the origin of these results see US9469615B2, “Quinoxalines and AZA-quinoxalines as CRTH2 receptor modulators” (Merck Sharp & Dohme Corp., priority 2010, dated 2016).
